# Target: wild type c-kit (Homo sapiens (Human), UniProt P10721)
# Assay: PathScan phospho c-kit (Tyr719) sandwich ELISA in SCF-stimulated M-07e cells (pKIT assay)
# Type: cell-based
# Conditions: ELISA assay (values not marked *)
# Text: The ability of compounds of the disclosure (described herein as test compounds) to inhibit autophosphorylation of wild type c-kit was measures using either a PathScan phospho c-kit (Tyr719) sandwich ELISA (CST #7298) or a Phospho c-Kit (Tyr721) Assay Whole Cell Lysate Kit (MSD: 515DPD/catalog number K15119D-2).
# For the PathScan phospho c-kit (Tyr719) sandwich ELISA: M-07e cells were resuspended at 2×10^6 cells/mL in phenol red free, serum-free, GM-CSF-free Iscove's Modified Dulbecco's Medium (IMDM) media with 1% Penicillin-Streptomycin. The cells were then dispensed into the wells of a U-bottom, 96-well plate at 50 uL per well using a multichannel pipet. The plate was allowed to incubate at 37° C. in a humidified tissue culture incubator for 4 hours.
# After 4 hours of incubation, each well was dosed with 6.25 uL of test compound at a final DMSO concentration of 0.25% for 60 min at 37° C. to generate an 8-point dose concentration series of test compounds in duplicate. Cells were then incubated for 1 hour at 37° C. in a humidified tissue culture incubator. Next, human SCF at 500 ng/mL was added to the appropriate wells at 6.25 uL/well and the plate was shaken at 450 rpm at room temperature for 10 minutes. AlphaLISA 5× Lysis Buffer supplemented with 1× protease and phosphatase inhibitor was then added at 16 uL/well. The plate was sealed with an adherent cover and shaken at 4° C. at 600 rpm for 30 minutes. After this period of lysis, the plate was stored at −80° C.
# When the 96-well plate containing M07e lysates was ready to be processed, the plate was brought to room temperature and 40 μl from each well was transferred to the wells of a PathScan Phospho-c-Kit (Tyr719) Sandwich ELISA plate (CST, Catalog #7298). The ELISA plate was sealed with an adherent cover and incubated for 2 hours at 37° C. Next, the wells were washed 4 times with the provided 1× Wash Buffer, and 100 uL/well of reconstituted Detection Antibody was added to each well, the plate sealed with an adherent cover, and incubated at 37° C. for 1 hour. The wash procedure was repeated and 100 uL/well of reconstituted HRP-Linked secondary antibody was added. The plate was sealed with an adherent cover and incubated at 37° C. for 1 hour. The wash procedure was repeated and 100 uL/well of TMB Substrate was added. The plate was incubated for 10 minutes at room temperature or until the positive reaction elicited a blue color in the appropriate wells. 100 uL/well of STOP solution was added and shaken gently for a few seconds a microplate reader or conventional spectrophotometer e.g., a Perkin Elmer Envision multimode plate reader, part #2105-0010.
# An IC50 was calculated using a 4-parameter logistic nonlinear regression.
# Sequence of wild type c-kit (P10721 26-976): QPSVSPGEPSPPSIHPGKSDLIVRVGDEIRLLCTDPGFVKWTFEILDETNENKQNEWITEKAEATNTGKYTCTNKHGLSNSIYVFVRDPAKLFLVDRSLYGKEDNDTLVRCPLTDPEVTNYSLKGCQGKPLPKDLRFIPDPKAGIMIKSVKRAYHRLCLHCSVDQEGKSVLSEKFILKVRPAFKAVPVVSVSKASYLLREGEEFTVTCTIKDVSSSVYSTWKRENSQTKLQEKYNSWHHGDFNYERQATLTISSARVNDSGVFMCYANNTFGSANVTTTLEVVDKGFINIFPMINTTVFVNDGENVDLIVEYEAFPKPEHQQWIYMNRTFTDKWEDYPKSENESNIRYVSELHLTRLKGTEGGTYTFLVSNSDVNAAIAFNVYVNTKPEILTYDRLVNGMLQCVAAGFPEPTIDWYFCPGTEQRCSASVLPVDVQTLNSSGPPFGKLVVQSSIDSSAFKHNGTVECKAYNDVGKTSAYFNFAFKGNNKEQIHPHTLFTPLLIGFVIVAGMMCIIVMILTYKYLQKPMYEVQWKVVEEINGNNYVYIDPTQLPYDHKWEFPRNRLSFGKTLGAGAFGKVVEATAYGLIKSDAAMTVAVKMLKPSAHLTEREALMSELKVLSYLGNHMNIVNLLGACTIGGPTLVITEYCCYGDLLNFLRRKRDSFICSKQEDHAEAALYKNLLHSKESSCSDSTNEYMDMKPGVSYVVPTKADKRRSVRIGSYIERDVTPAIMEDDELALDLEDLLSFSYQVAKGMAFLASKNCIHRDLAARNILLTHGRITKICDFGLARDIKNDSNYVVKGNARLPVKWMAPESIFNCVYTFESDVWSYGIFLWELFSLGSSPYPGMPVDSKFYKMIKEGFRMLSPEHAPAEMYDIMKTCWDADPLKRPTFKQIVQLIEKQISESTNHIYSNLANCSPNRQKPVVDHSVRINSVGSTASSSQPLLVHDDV
row,IC50 [nM],SMILES
1,0.5,"Cc1ccc(-c2nnn(C3CC3)n2)cc1NC(=O)c1cnn2ccc(-c3cnn(CC(C)(C)O)c3)cc12 [Example 242, N-(5-(2-cyclopropyl-2H-tetrazol-5-yl)-2-methylphenyl)-5-(1-(2-hydroxy-2-methylpropyl)-1H-pyrazol-4-yl)pyrazolo[1,5-a]pyridine-3-carboxamide]"
2,41.6,"COC(=O)N1CC(n2nnc(-c3ccc(C)c(NC(=O)c4cnn5ccc(N6CCC[C@@H](O)C6)cc45)c3)n2)C1 [Example 71, methyl (R)-3-(5-(3-(5-(3-hydroxypiperidin-1-yl)pyrazolo[1,5-a]pyridine-3-carboxamido)-4-methylphenyl)-2H-tetrazol-2-yl)azetidine-1-carboxylate]"
3,29.6,"COC(=O)N1CC(n2nnc(-c3ccc(C)c(NC(=O)c4cnn5ccc(OCCO)cc45)c3)n2)C1 [Example 199, methyl 3-(5-(3-(5-(2-hydroxyethoxy)pyrazolo[1,5-a]pyridine-3-carboxamido)-4-methylphenyl)-2H-tetrazol-2-yl)azetidine-1-carboxylate]"
4,47.4,"COCC(C)Nc1ccn2ncc(C(=O)Nc3cc(-c4nnn(C5CN(C(=O)OC)C5)n4)ccc3C)c2c1 (stereo in doubt) [Example 128, methyl (S)-3-(5-(3-(5-((1-methoxypropan-2-yl)amino)pyrazolo[1,5-a]pyridine-3-carboxamido)-4-methylphenyl)-2H-tetrazol-2-yl)azetidine-1-carboxylate]"
5,8.1,"CC(C)(O)Cn1cc(-c2ccn3ncc(C(=O)Nc4cc(-n5nnc(C6CC6)n5)ccc4F)c3c2)cn1 [Example 217, N-(5-(5-cyclopropyl-2H-tetrazol-2-yl)-2-fluorophenyl)-5-(1-(2-hydroxy-2-methylpropyl)-1H-pyrazol-4-yl)pyrazolo[1,5-a]pyridine-3-carboxamide]"
6,4.8,"Cc1ccc(-c2nnn(C)n2)cc1NC(=O)c1cnn2ccccc12 [Example 2, N-(2-methyl-5-(2-methyl-2H-tetrazol-5-yl)phenyl)pyrazolo[1,5-a]pyridine-3-carboxamide]"
7,3.8,"Cc1ccc(-c2nnn(CC3CC4(CC4)CO3)n2)cc1NC(=O)c1cnn2ccccc12 (centres unmarked) [Example 10, N-(5-(2-((5-oxaspiro[2.4]heptan-6-yl)methyl)-2H-tetrazol-5-yl)-2-methylphenyl)pyrazolo[1,5-a]pyridine-3-carboxamide]"
8,50.9,"COC(=O)N1CC(n2nnc(-c3ccc(C)c(NC(=O)c4cnn5ccc(N6CCO[C@@H](CO)C6)cc45)c3)n2)C1 [Example 91, methyl (R)-3-(5-(3-(5-(2-(hydroxymethyl)morpholino)pyrazolo[1,5-a]pyridine-3-carboxamido)-4-methylphenyl)-2H-tetrazol-2-yl)azetidine-1-carboxylate]"
9,0.9,"Cc1nn([C@H](C)[C@@H](C)O)cc1-c1ccn2ncc(C(=O)Nc3cc(-c4nnn(C5CC5)n4)c(F)cc3Cl)c2c1 (single isomer, unassigned) [Example 287, N-(2-chloro-5-(2-cyclopropyl-2H-tetrazol-5-yl)-4-fluorophenyl)-5-(1-((2R,3R)-3-hydroxybutan-2-yl)-3-methyl-1H-pyrazol-4-yl)pyrazolo[1,5-a]pyridine-3-carboxamide or N-(2-chloro-5-(2-cyclopropyl-2H-tetrazol-5-yl)-4-fluorophenyl)-5-(1-((2S,3S)-3-hydroxybutan-2-yl)-3-methyl-1H-pyrazol-4-yl)pyrazolo[1,5-a]pyridine-3-carboxamide]"
10,103,"Cc1ccc(-c2nnn(C3CN(S(=O)(=O)CCCCC#N)C3)n2)cc1NC(=O)c1cnn2ccccc12 [Example 186, N-(5-(2-(1-((4-cyanobutyl)sulfonyl)azetidin-3-yl)-2H-tetrazol-5-yl)-2-methylphenyl)pyrazolo[1,5-a]pyridine-3-carboxamide]"
11,4.9,"Cc1ccc(-c2nnn(C3CN(S(=O)(=O)C4CC4)C3)n2)cc1NC(=O)c1cnn2ccccc12 [Example 179, N-(5-(2-(1-(cyclopropylsulfonyl)azetidin-3-yl)-2H-tetrazol-5-yl)-2-methylphenyl)pyrazolo[1,5-a]pyridine-3-carboxamide]"
12,5.2,"Cn1nnc(-c2ccc(Cl)c(NC(=O)c3cnn4ccc(-c5cnn(CCO)c5)cc34)c2)n1 [Example 218, N-(2-chloro-5-(2-methyl-2H-tetrazol-5-yl)phenyl)-5-(1-(2-hydroxyethyl)-1H-pyrazol-4-yl)pyrazolo[1,5-a]pyridine-3-carboxamide]"
13,0.3,"Cc1nn(C(CO)CO)c(C)c1-c1ccn2ncc(C(=O)Nc3cc(-c4nnn(C5CC5)n4)ccc3Cl)c2c1 [Example 276, N-(2-chloro-5-(2-cyclopropyl-2H-tetrazol-5-yl)phenyl)-5-(1-(1,3-dihydroxypropan-2-yl)-3,5-dimethyl-1H-pyrazol-4-yl)pyrazolo[1,5-a]pyridine-3-carboxamide]"
14,0.4,"Cc1nn(CC(C)(C)O)cc1-c1ccn2ncc(C(=O)Nc3cc(-c4nnn(C5CC5)n4)ccc3Cl)c2c1 [Example 250, N-(2-chloro-5-(2-cyclopropyl-2H-tetrazol-5-yl)phenyl)-5-(1-(2-hydroxy-2-methylpropyl)-3-methyl-1H-pyrazol-4-yl)pyrazolo[1,5-a]pyridine-3-carboxamide]"
15,29.6,"COC(=O)N1CC(n2nnc(-c3ccc(C)c(NC(=O)c4cnn5ccc(N[C@@H]6CCOC6)cc45)c3)n2)C1 [Example 129, methyl (R)-3-(5-(4-methyl-3-(5-((tetrahydrofuran-3-yl)amino)pyrazolo[1,5-a]pyridine-3-carboxamido)phenyl)-2H-tetrazol-2-yl)azetidine-1-carboxylate]"
16,2.7,"Cc1ccc(-n2nnc(C3CC3F)n2)cc1NC(=O)c1cnn2ccc(-c3cnn(CC(C)(C)O)c3)cc12 (centres unmarked) [Example 222, N-(5-(5-(2-fluorocyclopropyl)-2H-tetrazol-2-yl)-2-methylphenyl)-5-(1-(2-hydroxy-2-methylpropyl)-1H-pyrazol-4-yl)pyrazolo[1,5-a]pyridine-3-carboxamide]"
17,2.4,"CC(C)(O)Cn1cc(-c2ccn3ncc(C(=O)Nc4cc(-n5nnc(C6CC6)n5)ccc4Cl)c3c2)cn1 [Example 216, N-(2-chloro-5-(5-cyclopropyl-2H-tetrazol-2-yl)phenyl)-5-(1-(2-hydroxy-2-methylpropyl)-1H-pyrazol-4-yl)pyrazolo[1,5-a]pyridine-3-carboxamide]"
18,27,"COC(=O)N1CC(n2nnc(-c3cc(NC(=O)c4cnn5cc(N6CCOCC6)ccc45)c(C)cc3F)n2)C1 [Example 224, methyl 3-(5-(2-fluoro-4-methyl-5-(6-morpholinopyrazolo[1,5-a]pyridine-3-carboxamido)phenyl)-2H-tetrazol-2-yl)azetidine-1-carboxylate]"
19,3.8,"Cc1ccc(-c2nnn(CCCC(F)(F)F)n2)cc1NC(=O)c1cnn2ccccc12 [Example 1, N-(2-methyl-5-(2-(4,4,4-trifluorobutyl)-2H-tetrazol-5-yl)phenyl)pyrazolo[1,5-a]pyridine-3-carboxamide]"

row,SMILES,IC50 [nM]
1,"Cc1ccc(-c2nnn(CCOC3CCC3)n2)cc1NC(=O)c1cnn2ccccc12 [Example 12, N-(5-(2-(2-cyclobutoxyethyl)-2H-tetrazol-5-yl)-2-methylphenyl)pyrazolo[1,5-a]pyridine-3-carboxamide]",2.4

# From patent publication US20240262826A1, “WILD TYPE KIT INHIBITORS” (Blueprint Medicines Corporation, priority 2022, published 2024)
